Like-named read-outs stand apart in the source and are kept apart here. Positions of bridges follow the written chain, without caps; N, C: chain ends. No end group written: not given here. *: point of attachment. long‑chain biotin = O=C(CCCC[C@@H]1SC[C@@H]2NC(=O)N[C@@H]21)NCCCCCC(=O)*; cfSGFP2 = cysteine-free variant of the GFP
Key:
[1] = biological target: T1, RAMP1/CLR CGRP receptor heterodimer in HEK293FT reporter cells (Homo sapiens, UniProt O60894+Q16602); assay: Luminescent cAMP (GloSensor) cell-based bioassay for CGRP receptor activation; settings: for Log(EC50), Cleaved: after protease: (1) 5 ng/μl human FAP, (2) 0.1 U/μl TEV, (3) 2 pg/μl EK light chain, (4) 23 ng/μl, (5) 11.5 ng/μl human CASP3; for Log(EC50), Cleaved / Log(EC50), Uncleaved: s.e.m. <0.1 (n=7); for Log(EC50), Uncleaved: incubated without protease
T1 construct: HA-CALCRL: Human calcitonin receptor-like receptor preceded by the H. influenza; Human receptor-activity modifying protein 1 preceded by the H. influenza; hemagglutinin signal peptide (heterologous, replaces the native one) (N); expressed in transfected cells
T1 sequence (Q16602 23-461): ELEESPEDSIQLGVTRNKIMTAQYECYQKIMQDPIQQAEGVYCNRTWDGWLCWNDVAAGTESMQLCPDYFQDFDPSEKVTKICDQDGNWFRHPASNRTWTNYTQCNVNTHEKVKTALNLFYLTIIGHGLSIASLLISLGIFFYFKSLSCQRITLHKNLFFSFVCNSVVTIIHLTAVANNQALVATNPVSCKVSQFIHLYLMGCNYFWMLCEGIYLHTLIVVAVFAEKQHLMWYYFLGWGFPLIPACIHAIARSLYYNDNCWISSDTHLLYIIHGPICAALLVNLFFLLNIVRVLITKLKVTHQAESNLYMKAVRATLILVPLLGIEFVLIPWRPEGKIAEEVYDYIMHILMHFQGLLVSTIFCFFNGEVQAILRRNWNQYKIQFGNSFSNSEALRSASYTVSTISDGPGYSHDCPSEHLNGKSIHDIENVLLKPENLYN
T1 sequence (O60894 27-148): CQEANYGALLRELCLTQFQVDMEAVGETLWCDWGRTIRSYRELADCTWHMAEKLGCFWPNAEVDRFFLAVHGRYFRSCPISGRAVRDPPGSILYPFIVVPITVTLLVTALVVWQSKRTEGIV

[2] = tested on: rat brain (thalamus); nNOS; assay: MRI of CGRP response before and after systemic nNOS inhibition with L-NAME; format: in vivo, rat (Sprague-Dawley)
Protocol: (e) Dissociation of CGRP-induced artificial haemodynamic signals from nitric oxide-mediated signalling. Left, haemodynamic responses observed by imaging upon unilateral CGRP injection into the left thalamus, before L-NAME delivery (-LN, top), or into the right thalamus, after 50 mg kg^−1 intravenous L-NAME infusion (+LN, bottom). […] Error bars throughout this figure denote s.e.m. values (n=4).
High resolution T2-weighted anatomical scans of each animal were obtained using a rapid acquisition with relaxation enhancement (RARE) pulse sequence with echo time (TE)=44 ms, recycle time (TR)=2,500 ms, RARE factor=8, spatial resolution=100 × 100 × 500 μm, and matrix size=128 × 128 with seven slices. Haemodynamic contrast image series were acquired using a gradient echo echo planar imaging (EPI) pulse sequence with TE=34 ms, TR=4,000 ms, spatial resolution=300 × 300 × 500 μm, and matrix size=64 × 64 with seven slices. To parallel the optical imaging experiments, 5 min of baseline measurement with 4 s per image were acquired before probe infusion. Following this baseline period, while continuously collecting EPI scans, infusion pumps were remotely turned on to commence intracranial injection (in the parenchymal tissue) of 1 μl aliquots of CGRP or control solutions at the rate of 0.1 μl min^−1 through the cannulae. […]
MRI data was processed and analysed using the AFNI software package[47]. […]

[3] = tested on: CASP3, in rat brain (thalamus); settings: for significant haemodynamic activation / voxel correlation with vs without CASP3: 100 nM sensor, BOLD MRI
Protocol: CASP3 sensor aliquots (100 nM) were injected at 0.1 μl min^−1 for 10 min in the presence or absence of CASP3 enzyme (2.3 ng μl^−1) in paired injections into rat thalamus.
High resolution T2-weighted anatomical scans of each animal were obtained using a rapid acquisition with relaxation enhancement (RARE) pulse sequence with echo time (TE)=44 ms, recycle time (TR)=2,500 ms, RARE factor=8, spatial resolution=100 × 100 × 500 μm, and matrix size=128 × 128 with seven slices. Haemodynamic contrast image series were acquired using a gradient echo echo planar imaging (EPI) pulse sequence with TE=34 ms, TR=4,000 ms, spatial resolution=300 × 300 × 500 μm, and matrix size=64 × 64 with seven slices. To parallel the optical imaging experiments, 5 min of baseline measurement with 4 s per image were acquired before probe infusion. Following this baseline period, while continuously collecting EPI scans, infusion pumps were remotely turned on to commence intracranial injection (in the parenchymal tissue) of 1 μl aliquots of CGRP or control solutions at the rate of 0.1 μl min^−1 through the cannulae. […] For the experiments of Fig. 3d, CGRP-based CASP3 sensors (100 nM) were co-injected simultaneously, either with or without comixed CASP3 enzyme (1.15 ng μl^−1).
MRI data was processed and analysed using the AFNI software package[47]. The AFNI 3dAllineate command was used to align each animal's EPI data set to the corresponding RARE anatomical image. Each animal's image data were then aligned to a reference MRI rat atlas[48]. To identify voxels with significant increases or decreases in BOLD signal, we used the 3dDeconvolve routines in AFNI to correlate individual or group level voxel-level signal changes with the injection epochs. For correlation analysis, injection epochs were modeled by ‘box car' regressors with a single stimulus block synchronized with the onset and offset of infusion, without delays. […] The cluster size and P value threshold were objectively chosen, based on AFNI's AlphaSim routine, to provide a type I error rate of 5% after correction for multiple comparisons[49][50]; this was appropriate for robust hypothesis testing on individual voxels throughout the entire imaging volume. […] Time courses were obtained by averaging MRI signal over 1.5 × 1.5 mm regions of interest defined around cannula tip locations in individual animals' data sets. The peak percent signal change was determined by comparing signal values during baseline and infusion conditions. Additional statistical analysis was performed in Matlab.

caspase-3 (CASP3) = assay: Proteolytic cleavage by caspase-3 (SDS-PAGE or MALDI); format: biochemical, human; settings: 10 µM sensor, 2 h, 37 °C; SDS-PAGE (sensor 4) or MALDI (sensor 5)
Protocol: Proteolytic cleavage reactions
Supplementary Fig. 4. Proteolytic cleavage of candidate sensors and assessment by bioas-say. (a-e) Cleavage reaction products after incubation of 10 µM sensor with or without enzyme for 2 h at 37 °C. (a) MALDI mass spectrum of sensor (1) after incubation with or without FAP […]
(b) SDS-PAGE analysis of sensor
(c) SDS-PAGE analysis of sensor (3) after incubation with different concentrations of EK light […]
(d) SDS-PAGE analysis of sen- […]
and liberation of free CGRP. (f-k) Dose-response curves of uncleaved and cleaved sensors in […]
(f) Dose-response curves for Sensors (2-4) at final assay concentrations up to 10 uM (addition of 10 µL of 100 µM solution to 90 µL medium per well in bioassay) show no receptor activation by uncleaved GFP-linker-CGRP-G sensors even at 10-fold higher concentrations than were used in cleavage assays (g-k). (g-k) Dose-response curves for reaction products from (a-e). Error bars in (f-k) denote SD of measurements performed in triplicate.
(1 picture or pasted object on this page, not shown here)

**Q.** `CC(C)C[C@H](NC(=O)CNC(=O)[C@H](C)NC(=O)[C@H](CC(C)C)NC(=O)[C@H](CCCNC(=N)N)NC(=O)[C@H](Cc1c[nH]cn1)NC(=O)[C@@H](NC(=O)[C@@H](NC(=O)[C@@H]1CSSC[C@H](NC(=O)[C@H](C)N)C(=O)N[C@@H](CC(=O)O)C(=O)N[C@@H]([C@@H](C)O)C(=O)N[C@@H](C)C(=O)N[C@@H]([C@@H](C)O)C(=O)N1)C(C)C)[C@@H](C)O)C(=O)N[C@@H](CC(C)C)C(=O)N[C@@H](CO)C(=O)N[C@@H](CCCNC(=N)N)C(=O)N[C@@H](CO)C(=O)NCC(=O)NCC(=O)N[C@H](C(=O)N[C@H](C(=O)N[C@@H](CCCCN)C(=O)N[C@@H](CC(N)=O)C(=O)N[C@@H](CC(N)=O)C(=O)N[C@@H](Cc1ccccc1)C(=O)N[C@H](C(=O)N1CCC[C@H]1C(=O)N[C@H](C(=O)N[C@@H](CC(N)=O)C(=O)N[C@H](C(=O)NCC(=O)N[C@@H](CO)C(=O)N[C@@H](CCCCN)C(=O)N[C@@H](C)C(=O)N[C@@H](Cc1ccccc1)C(=O)NCC(=O)O)C(C)C)[C@@H](C)O)C(C)C)C(C)C)C(C)C` [CGRP-G] was tested. Which EC50 ([1]; C-terminal glycine extension, read-out: 95% CI of EC50 for receptor activation) did it give?
**A.** 2.1 to 3.1 nM

**Q.** And the EC50 ([1]; C-terminal glycine extension, read-out: EC50 for receptor activation)?
**A.** 2.5 nM

**Q.** Which results are given for `COC(=O)[C@@H](N)CCCNC(N)=N[N+](=O)[O-]` [L-NAME, N-nitro-L-arginine methyl ester]?
**A.** average increase in baseline brain MRI signal before CGRP infusion ([2]; 50 mg/kg i.v., t-test P=0.11, n=4, not significant): 3.5±2.3%; increase in baseline MRI signal after L-NAME (review reply) ([2]; during first five minutes after L-NAME injection, n=4): < 5%

**Q.** `CC(C)C[C@H](NC(=O)CNC(=O)[C@H](C)NC(=O)[C@H](CC(C)C)NC(=O)[C@H](CCCNC(=N)N)NC(=O)[C@H](Cc1c[nH]cn1)NC(=O)[C@@H](NC(=O)[C@@H](NC(=O)[C@@H]1CSSC[C@H](NC(=O)[C@H](C)NC(=O)[C@@H]2CCCN2C(=O)[C@H](C)N)C(=O)N[C@@H](CC(=O)O)C(=O)N[C@@H]([C@@H](C)O)C(=O)N[C@@H](C)C(=O)N[C@@H]([C@@H](C)O)C(=O)N1)C(C)C)[C@@H](C)O)C(=O)N[C@@H](CC(C)C)C(=O)N[C@@H](CO)C(=O)N[C@@H](CCCNC(=N)N)C(=O)N[C@@H](CO)C(=O)NCC(=O)NCC(=O)N[C@H](C(=O)N[C@H](C(=O)N[C@@H](CCCCN)C(=O)N[C@@H](CC(N)=O)C(=O)N[C@@H](CC(N)=O)C(=O)N[C@@H](Cc1ccccc1)C(=O)N[C@H](C(=O)N1CCC[C@H]1C(=O)N[C@H](C(=O)N[C@@H](CC(N)=O)C(=O)N[C@H](C(=O)NCC(=O)N[C@@H](CO)C(=O)N[C@@H](CCCCN)C(=O)N[C@@H](C)C(=O)N[C@@H](Cc1ccccc1)C(N)=O)C(C)C)[C@@H](C)O)C(C)C)C(C)C)C(C)C` [Sensor (1)] was tested. Which EC50 ([1]; after FAP cleavage, 95% CI, read-out: CI of EC50 following cleavage) did it give?
**A.** 0.013 to 0.02 nM

**Q.** And the EC50 ([1]; uncleaved FAP sensor, 95% CI, read-out: CI of EC50 before cleavage)?
**A.** 0.112 to 0.116 nM

**Q.** And the EC50 ([1]; uncleaved FAP sensor, read-out: EC50 before cleavage)?
**A.** 0.114 nM

**Q.** With “(long-chain biotin)-SG-DEVD-CGRP-amide (disulfide) ({long‑chain biotin}-SGDEVDACDTATCVTHRLAGLLSRSGGVVKNNFVPTNVGSKAF-NH2; disulfide 8-13) [Sensor (5)]” as the compound, how does the EC50 ([1]; after CASP3 cleavage, 95% CI, read-out: CI of EC50 following cleavage) read?
**A.** 0.038 to 0.046 nM

**Q.** And the EC50 ([1]; uncleaved CASP3 sensor, 95% CI, read-out: CI of EC50 before cleavage)?
**A.** 5.2 to 6.4 nM

**Q.** What about the EC50 ([1]; uncleaved CASP3 sensor, read-out: EC50 before cleavage) of the same compound?
**A.** 5.7 nM

**Q.** “(long-chain biotin)-SG-DEVD-CGRP-amide (disulfide) [Sensor (5)]” was tested. Which “protease sensitivity and post-cleavage potency, ranking” value ([1]; comparison of sensors) did it give?
**A.** optimum protease sensitivity and post-cleavage potency

**Q.** What about the “peak MRI signal change in the absence of CASP3” value ([3]; 100 nM sensor alone, 0.1 μl/min, 10 min, n=4) of the same compound?
**A.** 1.6±0.5%

**Q.** What about the “mean MRI peak signal change, sensor/CASP3 co-injection” value ([3]; 100 nM sensor with CASP3, 0.1 μl/min, 10 min, n=4, P=0.02) of the same compound?
**A.** 7.0±0.9%

**Q.** What about the “significant haemodynamic activation / voxel correlation with vs without CASP3” value ([3]; corrected t-test P<0.05, listed as CASP3 sensor) of the same compound?
**A.** observed in the presence but not the absence of the co-injected protease

**Q.** What about the “significant haemodynamic activation / voxel correlation with vs without CASP3” value ([3]; corrected t-test P<0.05, listed as CGRP-based molecular imaging probe (5)) of the same compound?
**A.** Significant haemodynamic activation can be seen in the presence but not the absence of coadministered 1.15 ng μl^−1 CASP3

**Q.** And the “cleavage by caspase-3” value (caspase-3 (CASP3))?
**A.** complete cleavage

**Q.** Which results are given for “cfSGFP2-DDDDK-CGRP-G (cfSGFP2-GGSGDDDDKACDTATCVTHRLAGLLSRSGGVVKNNFVPTNVGSKAFG; ends and bridges not checked; also: StrepII tag, position not given here) [Sensor (3), recombinant fusion of cysteine-free GFP, a short linker, enterokinase site and non-amidated CGRP]”?
**A.** Log(EC50), Cleaved [1]: −6.4; Log(EC50), Uncleaved [1]: <−5

**Q.** Which results are given for “cfSGFP2-DEVD-CGRP-G (cfSGFP2-GGSGDEVDACDTATCVTHRLAGLLSRSGGVVKNNFVPTNVGSKAFG; ends and bridges not checked; also: StrepII tag, position not given here) [Sensor (4), recombinant fusion of cysteine-free GFP, a short linker, caspase-3 site and non-amidated CGRP]”?
**A.** Log(EC50), Cleaved [1]: −6.4; Log(EC50), Uncleaved [1]: <−5

**Q.** How did the “cleavage by caspase-3” value (caspase-3 (CASP3)) turn out when “cfSGFP2-DEVD-CGRP-G [Sensor (4), recombinant fusion of cysteine-free GFP, a short linker, caspase-3 site and non-amidated CGRP]” was run?
**A.** near-complete

**Q.** For “cfSGFP2-ENLYFQG-CGRP-G (cfSGFP2-GGSGENLYFQGACDTATCVTHRLAGLLSRSGGVVKNNFVPTNVGSKAFG; ends and bridges not checked; also: StrepII tag, position not given here) [Sensor (2), recombinant fusion of cysteine-free GFP, a short linker, TEV protease site and non-amidated CGRP]”, which “Log(EC50), Cleaved” value [1] is on record?
**A.** −6.0

**Q.** What about the “Log(EC50), Uncleaved” value [1] of the same compound?
**A.** <−5

From article PMC5146284, “Molecular imaging with engineered physiology” (Nature Communications, 2016)
